Measurements as given in ChEMBL document CHEMBL6182893, “Discovery of non-electrophilic TRPA1 channel agonists with anti-nociceptive effects via rapid current desensitization” (Eur J Med Chem, 2025).
The source made the active and inactive calls.

Experiments:
[1] = target: T1, Transient receptor potential cation channel subfamily A member 1 (Homo sapiens, UniProt O75762); experiment: Agonist activity at human TRPA1 expressed in HEK293T cells by whole cell patch clamp recordings; type: cell-based
[2] = target: Transient receptor potential cation channel subfamily A member 1 (Mus musculus, UniProt Q8BLA8); experiment: Agonist activity at mouse TRPA1 expressed in HEK293T cells by whole cell patch clamp recordings; type: cell-based
[3] = Selectivity ratio of EC50 for agonist activity at mouse TRPA1 expressed in HEK293T cells to EC50 for agonist activity at human TRPA1 expressed in HEK293T cells; type: cell-based
[4] = Toxicity in wildtype C57BL/6J mouse assessed as irritation at 1 %, SC administered via hind paw and measured within 45 mins; settings: in vivo, 0.75 h
[5] = Toxicity in wildtype C57BL/6J mouse assessed as irritation at 0.3 %, SC administered via hind paw and measured within 45 mins; settings: in vivo, 0.75 h
[6] = tested on: Mus musculus; experiment: Antinociceptive activity in TRPA1 knock-out mouse model of thermal pain assessed as increase in paw lick latency at 20 mg/kg, po preadministered for 30 mins followed by exposure to 55 degreeC and measured up to 4 hrs by hot plate test; type: functional, organism-based
[7] = target: T1, Transient receptor potential cation channel subfamily A member 1; experiment: Irreversible binding affinity to TRPA1 (unknown origin); settings: filed as agonist
[8] = target: Transient receptor potential cation channel subfamily A member 1 (Mus musculus) (UniProt Q8BLA8); experiment: Desensitization of mouse TRPA1 expressed in HEK293T cells assessed as time constant (tau) at 200 uM in presence of Ca2+ containing solution by whole cell patch clamp recording; type: cell-based; settings: filed as agonist
[9] = target: T1, Transient receptor potential cation channel subfamily A member 1; experiment: Agonist activity at human TRPA1 expressed in HEK293T cells assessed as increase in channel opening by measuring single channel conductance at 30 uM in presence of A-967079 by single-channel recordings; type: cell-based; settings: filed as agonist
[10] = target: T1, Transient receptor potential cation channel subfamily A member 1; experiment: Agonist activity at human TRPA1 expressed in HEK293T cells assessed as increase in channel opening by measuring open probability at 30 uM in presence of A-967079 by single-channel recordings; type: cell-based; settings: filed as agonist
[11] = tested on: Mus musculus; experiment: Antinociceptive activity in acetic-acid induced wildtype male C57BL/6J mouse model of visceral pain assessed as reduction in abdominal writhing at 20 mg/kg, po preadministered for 30 mins followed by acetic acid challenge and measured after 15 mins; type: functional, organism-based
[12] = tested on: Mus musculus; experiment: Antinociceptive activity in acetic-acid induced TRPA1 knock-out mouse model of visceral pain assessed as reduction in abdominal writhing at 20 mg/kg, po preadministered for 30 mins followed by acetic acid challenge and measured after 15 mins; type: functional, organism-based
[13] = tested on: Mus musculus; experiment: Antinociceptive activity in wildtype female C57BL/6J mouse model of thermal pain assessed as paw withdrawal latency time at 20 mg/kg, po preadministered for 30 mins followed by exposure to 55 degreeC and measured immediately by hot plate test (reference value: 16.65 +/- 1.02 sec); type: functional; settings: 0.5 h
[14] = tested on: Mus musculus; experiment: Antinociceptive activity in wildtype female C57BL/6J mouse model of thermal pain assessed as paw withdrawal latency time at 20 mg/kg, po preadministered for 30 mins followed by exposure to 55 degreeC and measured after 30 mins by hot plate test (reference value: 11.83 +/- 1.25 sec); type: functional; settings: time 60 min, 1 h
[15] = tested on: Mus musculus; experiment: Antinociceptive activity in wildtype female C57BL/6J mouse model of thermal pain assessed as paw withdrawal latency time at 20 mg/kg, po preadministered for 30 mins followed by exposure to 55 degreeC and measured after 60 mins by hot plate test (reference value: 13.65 +/- 0.69 sec); type: functional; settings: time 90 min, 1.5 h
[16] = tested on: Mus musculus; experiment: Antinociceptive activity in wildtype female C57BL/6J mouse model of thermal pain assessed as paw withdrawal latency time at 20 mg/kg, po preadministered for 30 mins followed by exposure to 55 degreeC and measured after 120 mins by hot plate test (reference value: 15.65 +/- 1.22 sec); type: functional; settings: time 150 min
[17] = tested on: Mus musculus; experiment: Antinociceptive activity in wildtype female C57BL/6J mouse model of thermal pain assessed as paw withdrawal latency time at 20 mg/kg, po preadministered for 30 mins followed by exposure to 55 degreeC and measured after 4 hrs by hot plate test (reference value: 17.41 +/- 1.18 sec); type: functional
[18] = tested on: Mus musculus; experiment: Effect on mechanical allodynia in male C57BL/6J mouse assessed as paw withdrawal mechanical threshold at 20 mg/kg, po administered for 30 mins (reference value: 1.77 +/- 0.21 g); type: functional; settings: 0.5 h
[19] = tested on: Mus musculus; experiment: Antinociceptive activity in CFA-induced male C57BL/6J mouse model of inflammatory pain assessed as paw withdrawal mechanical threshold at 20 mg/kg, po challenged with CFA for 24 hrs followed by compound administration for 30 mins and measured immediately (reference value: 0.47 +/ 0.14 g); type: functional; settings: 0.5 h
[20] = tested on: Mus musculus; experiment: Antinociceptive activity in CFA-induced male C57BL/6J mouse model of inflammatory pain assessed as paw withdrawal mechanical threshold at 20 mg/kg, po challenged with CFA for 24 hrs followed by compound administration for 30 mins and measured after 0.5 hrs (reference value: 0.39 +/- 0.05 g); type: functional; settings: time 1 hrs
[21] = tested on: Mus musculus; experiment: Antinociceptive activity in CFA-induced male C57BL/6J mouse model of inflammatory pain assessed as paw withdrawal mechanical threshold at 20 mg/kg, po challenged with CFA for 24 hrs followed by compound administration for 30 mins and measured after 1 hrs (reference value: 0.22 +/- 0.03 g); type: functional; settings: time 1.5 hrs
[22] = tested on: Mus musculus; experiment: Antinociceptive activity in CFA-induced male C57BL/6J mouse model of inflammatory pain assessed as paw withdrawal mechanical threshold at 20 mg/kg, po challenged with CFA for 24 hrs followed by compound administration for 30 mins and measured after 2 hrs (reference value: 0.55 +/- 0.13 g); type: functional
[23] = tested on: Mus musculus; experiment: Antinociceptive activity in CFA-induced male C57BL/6J mouse model of inflammatory pain assessed as paw withdrawal mechanical threshold at 20 mg/kg, po challenged with CFA for 24 hrs followed by compound administration for 30 mins and measured after 4 hrs (reference value: 0.47 +/- 0.10 g); type: functional

T1 sequence (O75762 whole entry): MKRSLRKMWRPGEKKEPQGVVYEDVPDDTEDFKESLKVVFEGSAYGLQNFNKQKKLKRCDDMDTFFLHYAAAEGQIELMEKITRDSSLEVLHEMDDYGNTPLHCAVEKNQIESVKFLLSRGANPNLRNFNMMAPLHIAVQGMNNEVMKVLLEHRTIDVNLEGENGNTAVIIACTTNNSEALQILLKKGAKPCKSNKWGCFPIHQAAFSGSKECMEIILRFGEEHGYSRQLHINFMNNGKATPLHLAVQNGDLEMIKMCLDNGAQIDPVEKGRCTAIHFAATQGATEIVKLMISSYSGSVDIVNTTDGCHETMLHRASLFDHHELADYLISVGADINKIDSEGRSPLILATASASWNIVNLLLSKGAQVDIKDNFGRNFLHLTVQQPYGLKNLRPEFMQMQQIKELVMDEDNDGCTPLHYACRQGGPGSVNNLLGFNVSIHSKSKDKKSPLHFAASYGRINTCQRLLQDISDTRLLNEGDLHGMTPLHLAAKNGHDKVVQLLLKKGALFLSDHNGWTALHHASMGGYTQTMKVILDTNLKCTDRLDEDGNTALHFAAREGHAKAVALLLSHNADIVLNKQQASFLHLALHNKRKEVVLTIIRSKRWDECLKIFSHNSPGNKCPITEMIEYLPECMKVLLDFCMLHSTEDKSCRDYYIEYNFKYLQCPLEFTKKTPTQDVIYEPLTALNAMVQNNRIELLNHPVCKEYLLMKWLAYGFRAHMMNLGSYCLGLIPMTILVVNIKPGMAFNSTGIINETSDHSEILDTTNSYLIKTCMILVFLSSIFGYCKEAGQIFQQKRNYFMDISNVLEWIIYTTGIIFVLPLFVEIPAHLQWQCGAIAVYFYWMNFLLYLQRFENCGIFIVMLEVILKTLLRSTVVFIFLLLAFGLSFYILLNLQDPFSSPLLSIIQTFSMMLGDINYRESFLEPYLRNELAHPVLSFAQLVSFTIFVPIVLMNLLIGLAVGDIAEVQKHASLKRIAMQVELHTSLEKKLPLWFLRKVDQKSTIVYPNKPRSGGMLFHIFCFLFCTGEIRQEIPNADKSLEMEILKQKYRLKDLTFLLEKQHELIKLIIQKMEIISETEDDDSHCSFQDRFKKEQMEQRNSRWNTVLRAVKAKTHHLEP
Sequence of Transient receptor potential cation channel subfamily A member 1 (Mus musculus, UniProt Q8BLA8) (Q8BLA8 whole entry): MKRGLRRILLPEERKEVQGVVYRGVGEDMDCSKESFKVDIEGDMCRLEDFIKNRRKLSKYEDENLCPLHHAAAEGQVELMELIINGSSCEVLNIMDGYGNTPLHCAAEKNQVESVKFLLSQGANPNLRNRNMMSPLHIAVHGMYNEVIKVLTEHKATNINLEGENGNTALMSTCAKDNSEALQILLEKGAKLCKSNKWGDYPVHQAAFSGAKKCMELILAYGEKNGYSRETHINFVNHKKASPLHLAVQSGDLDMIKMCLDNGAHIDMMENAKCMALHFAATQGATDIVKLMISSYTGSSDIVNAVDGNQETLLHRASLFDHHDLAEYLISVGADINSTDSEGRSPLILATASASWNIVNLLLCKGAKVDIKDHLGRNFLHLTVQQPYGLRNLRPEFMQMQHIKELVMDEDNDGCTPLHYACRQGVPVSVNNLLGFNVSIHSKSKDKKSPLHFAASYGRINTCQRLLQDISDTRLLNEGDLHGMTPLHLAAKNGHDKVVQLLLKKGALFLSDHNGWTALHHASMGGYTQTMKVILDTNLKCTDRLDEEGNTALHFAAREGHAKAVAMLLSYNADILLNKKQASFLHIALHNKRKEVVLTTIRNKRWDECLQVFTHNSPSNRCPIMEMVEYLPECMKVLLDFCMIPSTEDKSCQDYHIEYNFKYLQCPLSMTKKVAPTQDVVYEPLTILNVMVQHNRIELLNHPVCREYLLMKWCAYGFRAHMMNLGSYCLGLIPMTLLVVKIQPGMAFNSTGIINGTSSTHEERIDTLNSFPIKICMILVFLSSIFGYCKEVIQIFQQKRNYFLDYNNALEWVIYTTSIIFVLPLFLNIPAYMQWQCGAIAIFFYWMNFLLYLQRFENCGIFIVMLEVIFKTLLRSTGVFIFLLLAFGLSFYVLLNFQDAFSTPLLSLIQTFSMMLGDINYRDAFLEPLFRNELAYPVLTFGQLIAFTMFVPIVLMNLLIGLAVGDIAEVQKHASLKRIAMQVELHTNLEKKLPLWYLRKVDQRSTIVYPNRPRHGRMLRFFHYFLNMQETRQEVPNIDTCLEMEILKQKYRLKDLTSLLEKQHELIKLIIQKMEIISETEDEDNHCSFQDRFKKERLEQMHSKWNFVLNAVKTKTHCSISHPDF
Sequence of Transient receptor potential cation channel subfamily A member 1 (Mus musculus) (Q8BLA8 whole entry): as above

COCCCN(C(=O)CCl)c1nc(-c2ccc(OC)cc2)cs1 showed an EC50 [1] of 6.48 nM, an EC50 [2] of 5260 nM and a Ratio EC50 [3] of 1000. The Activity [4] was “Toxic”, the Activity [5] was “Non-toxic” and the Activity [6] was “Active”.

With CCCCCNc1nc(-c2ccc(O)cc2)cs1 the Activity [7] was “Active”.

In the case of COCCCNc1cc(-c2ccc(C)cc2)cs1, the Activity [7] is reported as “Active”.

S=C=NCc1ccccc1 showed a TIME [8] of 0.0179 h.

For C=CCN=C=S [ALLYL ISOTHIOCYANATE], the Activity [9] was 102 pS, the Activity [10] was 0.15 and the Activity [4] was “Toxic”.

For CC(C)Cc1ccc(C(C)C(=O)O)cc1 (stereo not given) [IBUPROFEN], the Activity [11] was “Active”, the Activity [12] was “Active” and the Time [13] was 15.72 s. The Time [14] was 20.73 s, the Time [15] was 31.26 s and the Time [16] was 15.46 s. For the same compound, the Time [17] was 14.03 s, the Activity [18] was 1.84 g and the Activity [19] was 0.22 g. The Activity [20] was 1.2 g, the Activity [21] was 1.32 g and the Activity [22] was 0.69 g. It also gave an Activity [23] of 0.42 g.
